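Briefly, cells in 96-well plates were exposed to five compound concentrations for 48 h, and endpoints were estimated by linear interpolation. Here, GI50 denotes the concentration required for 50% inhibition of growth.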 Active and inactive are the calls of the source. No stated cut-off is given here; in the data, active = GI50 up to about 1.1 µM and inactive = higher.
How the values were obtained:
Test in all cases: NCI tumour cell line growth inhibition, 48 h
CAKI-1 = test system: CAKI-1
SF-295 = test system: SF-295
OVCAR-4 = test system: OVCAR-4
A549 = test system: A549
UO-31 = test system: UO-31
NCI-H522 = test system: NCI-H522
OVCAR-8 = test system: OVCAR-8
OVCAR-5 = test system: OVCAR-5
SNB-75 = test system: SNB-75
HOP-62 = test system: HOP-62
HCT-116 = test system: HCT-116
EKVX = test system: EKVX
RPMI-8226 = test system: RPMI-8226
SNB-19 = test system: SNB-19
ACHN = test system: ACHN
OVCAR-3 = test system: OVCAR-3

SMILES | GI50 (CAKI-1) | GI50 (SF-295) | GI50 (OVCAR-4) | GI50 (A549) | GI50 (UO-31) | GI50 (NCI-H522) | GI50 (OVCAR-8) | GI50 (OVCAR-5) | GI50 (SNB-75) | GI50 (HOP-62) | GI50 (HCT-116) | GI50 (EKVX) | GI50 (RPMI-8226) | GI50 (SNB-19) | GI50 (ACHN) | GI50 (OVCAR-3)
O=C1C[C@@H]2[C@@H](C=CC23CC3)N1O | > 100 µM (inactive) | > 100 µM (inactive) | > 100 µM (inactive) | > 100 µM (inactive) | > 100 µM (inactive) | > 100 µM (inactive) | > 100 µM (inactive) | > 100 µM (inactive) | > 100 µM (inactive) | > 100 µM (inactive) | > 100 µM (inactive) | > 100 µM (inactive) | > 100 µM (inactive) | > 100 µM (inactive) | – | –
N#Cc1ccc(Sc2nc3ccccc3[nH]2)cc1 | > 100 µM (inactive) | > 100 µM (inactive) | > 100 µM (inactive) | 78.2 µM (inactive) | > 100 µM (inactive) | > 100 µM (inactive) | > 100 µM (inactive) | 42.8 µM (inactive) | – | > 100 µM (inactive) | – | > 100 µM (inactive) | – | > 100 µM (inactive) | > 100 µM (inactive) | –
O=C(NCCCCCCNC(=O)NC1OCC(O)C(O)C1O)NC1OCC(O)C(O)C1O (centres undefined) | > 100 µM (inactive) | > 100 µM (inactive) | > 100 µM (inactive) | > 100 µM (inactive) | – | > 100 µM (inactive) | > 100 µM (inactive) | > 100 µM (inactive) | 64.9 µM (inactive) | > 100 µM (inactive) | > 100 µM (inactive) | > 100 µM (inactive) | > 100 µM (inactive) | < 0.01 µM (active) | > 100 µM (inactive) | > 100 µM (inactive)
CSc1nc(SC)c2c(C#N)n[nH]c2n1 | > 100 µM (inactive) | > 100 µM (inactive) | > 100 µM (inactive) | > 100 µM (inactive) | > 100 µM (inactive) | > 100 µM (inactive) | > 100 µM (inactive) | – | 63.5 µM (inactive) | > 100 µM (inactive) | – | > 100 µM (inactive) | > 100 µM (inactive) | > 100 µM (inactive) | > 100 µM (inactive) | > 100 µM (inactive)
NCCCNCCCCN(CCCN)/[N+]([O-])=N\O | > 100 µM (inactive) | > 100 µM (inactive) | > 100 µM (inactive) | > 100 µM (inactive) | > 100 µM (inactive) | – | > 100 µM (inactive) | > 100 µM (inactive) | 89.3 µM (inactive) | > 100 µM (inactive) | > 100 µM (inactive) | > 100 µM (inactive) | 29.8 µM (inactive) | > 100 µM (inactive) | > 100 µM (inactive) | > 100 µM (inactive)
Cn1cnc(CCc2ccccc2)n1 | > 100 µM (inactive) | > 100 µM (inactive) | > 100 µM (inactive) | > 100 µM (inactive) | > 100 µM (inactive) | > 100 µM (inactive) | > 100 µM (inactive) | > 100 µM (inactive) | > 100 µM (inactive) | > 100 µM (inactive) | > 100 µM (inactive) | – | > 100 µM (inactive) | – | > 100 µM (inactive) | > 100 µM (inactive)
CC(=O)NNc1nc(C)c(C(=O)NNC(=O)C(=O)Nc2c(Cl)cc([N+](=O)[O-])cc2Cl)s1 | – | 34.8 µM (inactive) | 22.1 µM (inactive) | 31.6 µM (inactive) | 27.4 µM (inactive) | > 10 µM (inactive) | 34.1 µM (inactive) | 27.2 µM (inactive) | – | 56.6 µM (inactive) | 34.5 µM (inactive) | 44.2 µM (inactive) | 44.7 µM (inactive) | 43.8 µM (inactive) | 31.8 µM (inactive) | 21 µM (inactive)
CC1(OCc2ccccc2)C(=O)N2C1NCC2(C)C (centres undefined) | – | > 100 µM (inactive) | > 100 µM (inactive) | > 100 µM (inactive) | 86.5 µM (inactive) | – | > 100 µM (inactive) | – | > 100 µM (inactive) | > 100 µM (inactive) | > 100 µM (inactive) | > 100 µM (inactive) | > 100 µM (inactive) | > 100 µM (inactive) | > 100 µM (inactive) | > 100 µM (inactive)
CC(C)c1cc(C(C)C)c(S(=O)(=O)NN)c(C(C)C)c1 | > 100 µM (inactive) | > 100 µM (inactive) | > 100 µM (inactive) | > 100 µM (inactive) | – | – | > 100 µM (inactive) | > 100 µM (inactive) | > 100 µM (inactive) | > 100 µM (inactive) | > 100 µM (inactive) | > 100 µM (inactive) | > 100 µM (inactive) | > 100 µM (inactive) | > 100 µM (inactive) | > 100 µM (inactive)
CC(=O)O[C@@H]1C2C(=O)OC(=O)C2C2CCC[C@]23O[C@H]13 (some centres undefined) | > 100 µM (inactive) | – | > 100 µM (inactive) | > 100 µM (inactive) | > 100 µM (inactive) | > 100 µM (inactive) | > 100 µM (inactive) | – | > 100 µM (inactive) | > 100 µM (inactive) | > 100 µM (inactive) | – | > 100 µM (inactive) | > 100 µM (inactive) | > 100 µM (inactive) | > 100 µM (inactive)
CCc1cccc(C(C)C)c1NC(=O)C(=O)CC(=O)c1c(C)[n+]([O-])c2ccccc2[n+]1[O-] | > 100 µM (inactive) | – | > 100 µM (inactive) | > 100 µM (inactive) | > 100 µM (inactive) | > 100 µM (inactive) | > 100 µM (inactive) | > 100 µM (inactive) | > 100 µM (inactive) | > 100 µM (inactive) | > 100 µM (inactive) | > 100 µM (inactive) | 30.1 µM (inactive) | > 100 µM (inactive) | 77.6 µM (inactive) | –
ClCCC[Si]12OCCN(CCO1)CCO2 | > 100 µM (inactive) | > 100 µM (inactive) | – | > 100 µM (inactive) | > 100 µM (inactive) | > 100 µM (inactive) | > 100 µM (inactive) | > 100 µM (inactive) | > 100 µM (inactive) | – | > 100 µM (inactive) | > 100 µM (inactive) | > 100 µM (inactive) | > 100 µM (inactive) | > 100 µM (inactive) | > 100 µM (inactive)
Clc1cc(Cl)c2ns[s+]c2c1Cl | > 100 µM (inactive) | > 100 µM (inactive) | > 100 µM (inactive) | > 100 µM (inactive) | > 100 µM (inactive) | > 100 µM (inactive) | > 100 µM (inactive) | > 100 µM (inactive) | 43.4 µM (inactive) | > 100 µM (inactive) | > 100 µM (inactive) | > 100 µM (inactive) | – | > 100 µM (inactive) | > 100 µM (inactive) | > 100 µM (inactive)
O=C(CC1S/C(=N\c2ccccc2Cl)NC1=O)Nc1ccc(Cl)cc1 (centres undefined) | > 100 µM (inactive) | > 100 µM (inactive) | 38.9 µM (inactive) | > 100 µM (inactive) | > 100 µM (inactive) | – | – | > 100 µM (inactive) | – | > 100 µM (inactive) | > 100 µM (inactive) | > 100 µM (inactive) | – | > 100 µM (inactive) | > 100 µM (inactive) | –
COc1ccc(/C=C2\N=C(c3ccccc3)N(Nc3nnc(NN4C(=O)/C(=C/c5ccc(OC)cc5)N=C4c4ccccc4)c4ccccc34)C2=O)cc1 | – | > 100 µM (inactive) | 53.2 µM (inactive) | > 100 µM (inactive) | – | 35.1 µM (inactive) | > 100 µM (inactive) | > 100 µM (inactive) | 68.9 µM (inactive) | 62.7 µM (inactive) | 94.4 µM (inactive) | > 100 µM (inactive) | 26.4 µM (inactive) | > 100 µM (inactive) | > 100 µM (inactive) | –
CN(C)CCS/C(=N\c1ccccc1)n1cccc1 | > 100 µM (inactive) | > 100 µM (inactive) | > 100 µM (inactive) | > 100 µM (inactive) | 32.2 µM (inactive) | 33.9 µM (inactive) | > 100 µM (inactive) | > 100 µM (inactive) | 27.6 µM (inactive) | 25.7 µM (inactive) | > 100 µM (inactive) | – | > 100 µM (inactive) | > 100 µM (inactive) | 78.5 µM (inactive) | > 100 µM (inactive)
C=C1C(OC(=O)/C=C/c2ccccc2)CC(OC(C)=O)C2(C)C1CC1CC(OC(C)=O)C(C)=C(C(OC(C)=O)C2OC(C)=O)C1(C)C (centres undefined) | > 100 µM (inactive) | > 100 µM (inactive) | – | 5.45 µM (inactive) | > 100 µM (inactive) | > 100 µM (inactive) | > 100 µM (inactive) | > 100 µM (inactive) | > 100 µM (inactive) | > 100 µM (inactive) | 3.79 µM (inactive) | – | 3.13 µM (inactive) | > 100 µM (inactive) | – | –
O=C(CC(=O)C(=O)Nc1ccccc1)CC(c1ccccc1)c1c(O)c2ccccc2oc1=O (centres undefined) | > 100 µM (inactive) | > 100 µM (inactive) | – | > 100 µM (inactive) | > 100 µM (inactive) | > 100 µM (inactive) | – | > 100 µM (inactive) | > 100 µM (inactive) | – | > 100 µM (inactive) | > 100 µM (inactive) | – | > 100 µM (inactive) | > 100 µM (inactive) | > 100 µM (inactive)
O=c1[nH]c(=O)n(C2CC(O)C(CO)O2)cc1OS(=O)(=O)C(F)(F)F (centres undefined) | > 100 µM (inactive) | > 100 µM (inactive) | > 100 µM (inactive) | > 100 µM (inactive) | – | > 100 µM (inactive) | > 100 µM (inactive) | > 100 µM (inactive) | > 100 µM (inactive) | > 100 µM (inactive) | > 100 µM (inactive) | > 100 µM (inactive) | > 100 µM (inactive) | > 100 µM (inactive) | > 100 µM (inactive) | > 100 µM (inactive)

Source: ChEMBL document CHEMBL1201862, “PubChem BioAssay data set” (2004)
